In paper PMC9643456, “Matching amino acids membrane preference profile to improve activity of antimicrobial peptides” (Communications Biology, 2022):
Values after ≈ are worked out from the molar mass of the structure shown. Square brackets hold non-standard residues; d marks the D form. Peptide text beside a SMILES is read from it.

How the values were obtained:
A. baumannii KCCM 40203 = experiment: microbe, parasite or virus in culture; details: bacteria OD 0.01, CAMHB
Protocol: (§1) To assess antimicrobial activity, the MIC50 and MIC90 were measured using broth microdilution following CLSI guidelines. […] Each experiment was performed in triplicate. Meropenem (Sigma, Darmstadt, Germany) and colistin were used as control antibiotics. Cation-adjusted Mueller–Hinton broth (CAMHB) (Becton, Dickinson and Company, Franklin Lakes, USA) with supplied calcium (50 mg/L) and magnesium (10 mg/L) was used for the CLSI-test condition. Bacteria in midlog phase and peptides were separately diluted in CAMHB. The bacteria and peptide solutions were then mixed in 96-well polyethylene plates (SPL, Gyeonggi-do, Korea) and incubated for 18 h at 37 °C. The final concentration for bacteria was 5 × 10^5 CFU/ml. […] The MIC was defined to be the lowest concentration of peptide without visible turbidity by comparing with control antibiotics with the unaided eye. […] Each experiment was performed in triplicate. MICs in albumin and acetic acid solutions were measured using the same protocol but with 0.2% bovine serum albumin (Bovogen, Keilor, Australia), 0.01% acetic acid (Merck, New Jersey, USA), and CAMHB with both calcium and magnesium. In addition, MICs used in the antibiotic resistance acquisition test, the outer–inner membrane permeation test, and the transmembrane potential test and for FE-SEM were individually determined. The final bacterial concentrations used were as follows: for resistance acquisition, optical density (OD) 0.01; for outer–inner membrane permeability assays (LB), OD 0.1; for the transmembrane potential test, 1 × 10^8 CFU/ml (OD 0.171); […]. Inhibitory activity unidentifiable by direct observation was determined by counting the CFUs. Each experiment was performed at least twice.
(§2) A. baumannii (KCCM 40203) and S. aureus (KCTC 1621) were selected as drug-sensitive bacteria. Mutation-susceptible tetracycline (an antibiotic that targets ribosomes) (Sigma, Darmstadt, Germany) and ofloxacin (an antibiotic that targets DNA gyrase) (Sigma, Darmstadt, Germany), mutation-resistant colistin (an antibiotic that targets lipopolysaccharide) (Sigma, Darmstadt, Germany) and vancomycin (an antibiotic that targets peptidoglycan pentapeptide) (Sigma, Darmstadt, Germany) were used as control antibiotics. The MIC for each antibiotic against bacteria (at OD 0.01) was measured. […] The MIC for each passage was confirmed by additional broth microdilutions under CLSI guidelines. Resistance acquisition was induced for 30 days (30 passages), and each MIC value was confirmed by an independent MIC test against bacteria at each passage.

MDR A. baumannii = experiment: Killing kinetics in the SEM sample; format: cell-based, Acinetobacter baumannii; details: 2 × 10^8 cfu/ml, x1 MIC, PBS, after 4 hours
Protocol: (§3) FE-SEM was used to observe peptide-induced changes in bacterial morphology. MDR A. baumannii (ATCC BAA-1605) and MDR S. aureus (KCCM 40510) were cultured in CAMHB to log phase and washed in PBS. Bacteria and peptides were diluted in PBS, after which aliquots of bacteria (50 μl) and peptides (50 μl) were mixed to yield the following final concentrations: MDR A. baumannii or MDR S. aureus, 2 × 10^8 CFU/ml; WCopW29, 2.5 μM. Mixtures were deposited onto cover glass slips and incubated for 0 min, 15 min, 30 min, 1 h or 4 h. After incubation, the bacteria were fixed with paraformaldehyde (4%) and osmium tetroxide (1%) (Sigma, Darmstadt, Germany), washed with water, and freeze-dried overnight. Freeze-dried samples were Pt-coated and placed in an S-4700, EMAX System field emission scanning electron microscope (Hitachi, Tokyo, Japan). Bacterial morphologies were imaged and recorded on video at magnifications of 10,000× and 25,000×.
(§4) Antimicrobial kinetics for each peptide and each bacterial strain were assessed using FE-SEM. […] Each experiment was performed in triplicate.

MDR S. aureus = experiment: Killing kinetics in the SEM sample; format: cell-based, Staphylococcus aureus; details: 2 × 10^8 cfu/ml, x1 MIC, PBS, after 4 hours
Protocol: as §3, §4

[1] = system: A. baumannii (KCCM 40203) and S. aureus (KCTC 1621); details: MIC and sub-MIC exposure for 30 days (30 passages)
Text: as §2

E. aerogenes NCCP 16285 = experiment: microbe, parasite or virus in culture
Protocol: as §1

[2] = 100 mg/kg s.c. daily for 3 days, n = 3; BUN and creatinine
Protocol: To assess nephrotoxicity, mice (female BALB/c, 8 weeks old; n = 3) were subcutaneously administered WCopW43 (100 mg/kg) or PBS (controls) three times (once every 24 h). Blood samples were then collected from the retroorbital veins into heparin-coated glass capillary tubes (Kimble Chase, NJ, USA), which were then centrifuged at 4000 rpm. The serum was collected and analyzed using a blood urea nitrogen (BUN) assay kit (Arbor Assay, Ann Arbor, USA) and a creatinine assay kit (Arbor Assay). Levels of BUN and blood creatinine clearance were measured using a SpectraMax plate spectrophotometer (Molecular Devices) at 450 nm and 490 nm, respectively.

[3] = system: colistin-resistant A. baumannii; experiment: In vivo activity, survival of infected mice; details: mouse model infected with colistin-resistant A. baumannii
Protocol: Female BALB/c mice (8-week old; n = 10) were purchased from orientbio (Gyeonggido, Republic of Korea) and fed under standardized environmental conditions for 1 week to be used to estimate time-dependent mouse survival rates. After inducing neutropenia by intraperitoneal injection of cyclophosphamide (150 mg/kg; Sigma), MDR S. aureus (KCCM 40510), MDR A. baumannii (colistin-resistant strain) or MDR K. pneumonia (colistin-resistant strain, NCCP 16125) was diluted in PBS and subcutaneously injected into mice (S. aureus, 1.5 × 10^8 CFU/ml; A. baumannii, 1 × 10^8 CFU/ml; K. pneumonia, 1 × 10^9 CFU/ml). After bacterial infection, 100 μl of WCopW43 peptide dissolved in distilled water (10 mg/ml) were injected (50 mg/kg) into each infected site, and survival was monitored every 12 h for 7 days. For A. baumannii infection, mice were intraperitoneally injected with mucin ([…], 1% in PBS, 300 μl) to suppress macrophages, and A. baumannii cells were incubated with mucin (1% in PBS) for 3 h before subcutaneous injection of 2 × 10^8 CFU/ml (0.2% mucin in PBS)[71]–[74]. Survival rates were calculated using the formula: 100% × (number of surviving mice/ten mice). One day after WCopW43 (50 mg/kg) injection, four mice were randomly selected and sacrificed by CO2 inhalation. […] Homogenized samples were spread onto MH agar plates, and CFU values were determined after incubation overnight at 37 °C.

K. pneumonia strains = experiment: microbe, parasite or virus in culture

CC[C@@H](C)[C@@H](NC(=O)[C@@H](Cc1c[nH]c2ccccc12)NC(=O)[C@H](NC(=O)[C@@H](CC(C)C)NC(=O)[C@H](N)Cc1c[nH]c2ccccc12)C(C)C)C(=O)N[C@H](Cc1c[nH]c2ccccc12)C(=O)N[C@H](CCCNC(=N)N)C(=O)N[C@H](CCCNC(=N)N)C(=O)N[C@H](CCCNC(=N)N)C(N)=O [WCopW29] (H-[dW][dL][dV][dW][dI][dW][dR][dR][dR]-NH2)
MIC at resistance induction condition, A. baumannii KCCM 40203 (A. baumannii KCCM 40203): 1.25 µM (≈ 1.71 µg/mL) | Loss of colony forming (MDR A. baumannii): 99% | Loss of colony forming (MDR S. aureus): 90% | MIC during resistance acquisition [1]: stable over a period of 30 days

CC[C@@H](C)[C@@H](NC(=O)[C@@H](Cc1c[nH]c2ccccc12)NC(=O)[C@@H](CCCNC(=N)N)NC(=O)[C@@H](CCCNC(=N)N)NC(=O)[C@H](N)CCCNC(=N)N)C(=O)N[C@H](Cc1c[nH]c2ccccc12)C(=O)N[C@@H](C(=O)N[C@@H](C(=O)N[C@H](Cc1c[nH]c2ccccc12)C(=O)N[C@H](CCCCN)C(N)=O)[C@H](C)CC)C(C)C [WCopW43] (H-[dR][dR][dR][dW][dI][dW][dV][dI][dW][dK]-NH2)
MIC, E. aerogenes NCCP 16285 (E. aerogenes NCCP 16285; NCCP 16285, 18 h): 1.25 µM (≈ 1.87 µg/mL) | MIC during resistance acquisition [1]: emergence of WCopW43 resistance is suppressed | Nephrotoxicity indicators [2]: non-nephrotoxic | Survival rate [3]: 100% | MIC, K. pneumonia NCCP 15782 (K. pneumonia strains; 18 h): 1.25 µM (≈ 1.87 µg/mL) | MIC, K. pneumonia NCCP 15864 (K. pneumonia strains; 18 h): 1.25 µM (≈ 1.87 µg/mL) | MIC, K. pneumonia NCCP 15866 (K. pneumonia strains; 18 h): 2.5 µM (≈ 3.74 µg/mL) | MIC, K. pneumonia NCCP 16052 (K. pneumonia strains; 18 h): 2.5 µM (≈ 3.74 µg/mL) | MIC, K. pneumonia NCCP 16124 (K. pneumonia strains; 18 h): 1.25 µM (≈ 1.87 µg/mL) | MIC, K. pneumonia NCCP 16125 (K. pneumonia strains; 18 h): 2.5 µM (≈ 3.74 µg/mL) | MIC, K. pneumonia NCCP 16128 (K. pneumonia strains; 18 h): 5 µM (≈ 7.49 µg/mL) | MIC, K. pneumonia NCCP 16208 (K. pneumonia strains; 18 h): 1.25 µM (≈ 1.87 µg/mL) | MIC, K. pneumonia NCCP 16212 (K. pneumonia strains; 18 h): 2.5 µM (≈ 3.74 µg/mL) | MIC, K. pneumonia NCCP 16213 (K. pneumonia strains; 18 h): 1.25 µM (≈ 1.87 µg/mL)

Colistin
MIC at resistance induction condition, A. baumannii KCCM 40203 (A. baumannii KCCM 40203): 1.25 µM | MIC, E. aerogenes NCCP 16285 (E. aerogenes NCCP 16285; MIC test, 5 x 10^5 cfu/ml, CAMHB): > 5 µM | Survival rate [3]: 90% | MIC, K. pneumonia NCCP 15782 (K. pneumonia strains; CLSI): 1.25 µM | MIC, K. pneumonia NCCP 15864 (K. pneumonia strains; CLSI): 0.63 µM | MIC, K. pneumonia NCCP 15866 (K. pneumonia strains; CLSI): 0.63 µM | MIC, K. pneumonia NCCP 16052 (K. pneumonia strains; CLSI): 0.63 µM | MIC, K. pneumonia NCCP 16124 (K. pneumonia strains; CLSI): 20 µM | MIC, K. pneumonia NCCP 16128 (K. pneumonia strains; CLSI): 5 µM | MIC, K. pneumonia NCCP 16208 (K. pneumonia strains; CLSI): < 0.31 µM | MIC, K. pneumonia NCCP 16212 (K. pneumonia strains; CLSI): < 0.31 µM | MIC, K. pneumonia NCCP 16213 (K. pneumonia strains; CLSI): 0.63 µM
